The record followed here is patent US11850266B2, “Cardiomyocytes and compositions and methods for producing the same” (President and Fellows of Harvard College, priority 2019, dated 2023).

Common to all, as to assay type: cell-based, human
The test system of test [1] is GCaMP-derived cardiomyocytes. Put plainly: Cardiomyocyte purity (% TNNT2+) in 3D suspension culture. The conditions noted are these: Torin1 24 hours from day 9, assay day 10; ~70% TNNT2+ with the protocol. The procedure:
Cardiomyocyte differentiation of iPSCs in suspension culture. The suspension differentiation protocol outlined by Kempf et al (79) will be used with some modifications. 30 ml and 125 ml disposable spinner flasks are set on a spinner plate capable of rotation speeds between 40-70 rpm placed in a 37° C., 5% CO2 incubator. Cells are seeded at 750,000 cells/ml and allowed to grow for 4 days in maintenance media until spheroids are approximately 300 μm in diameter, then differentiation is initiated with 7.5 μM CHIR99021. On day 2 of differentiation, CHIR is removed from the media and the Wnt pathway inhibitor IWP4 (5 μM) is added to the media, on day 4 of differentiation, IWP4 is removed from the media, and from day 7 onward, insulin is included in the media. […] Differentiation conditions will be optimized with all five cell lines (BJRiPS-A, DiPS 1016 SevA, GCaMP, Gibco, UCSD142i-86-1). Cardiomyocyte purity will be quantified with flow cytometry detecting TNNT2+ cells.
An example of a differentiation protocol for generating cardiomyocytes from iPSCs in suspension culture is detailed as follows. 30 ml and 125 ml disposable spinner flasks were used and were set on a spinner plate capable of rotation speeds between 40-70 rpm, where the spinner plate is placed in a 37° C., 5% CO2 incubator. […] Cardiomyocyte purity will be quantified with flow cytometry detecting TNNT2+ cells.

Test [2] concerns TNNT2+ iPSC-derived cardiomyocytes. Put plainly: Cell cycle analysis by flow cytometry (Hoechst 33342 / pyronin Y) of TNNT2+ cardiomyocytes. On the procedure:
(§1) To prepare for differentiation, iPSCs were plated at a density between 20,000 to 80,000 cells (depending on the cell line) per well of a 12-well plate at four days prior to onset of differentiation. Cells were differentiated according to the protocol previously described by Lian et al. with some modifications (FIG. 1A) (1). Basal media was changed from StemFlex to RPMI/B27 on day 0 of differentiation. The GSK3 inhibitor, CHIR99021 (6 μM), was added for 48 hours from day 0 to day 2 of differentiation when cells were approximately 70-80% confluent. The Wnt antagonist IWP4 (5 μM) was added from days 2 to 4 of differentiation. Insulin (10 μg/ml) was added to the media starting on day 7 of differentiation, and media was changed every 2-3 days. In general, higher purity (TNNT2+) cardiomyocytes were observed when beating initiated prior to day 10 of differentiation, therefore only batches with onset of beating between days 7-10 of differentiation were included in this study. Beating cardiomyocytes were treated with Torin1 (200 nM, unless otherwise noted) or vehicle (0.02% dimethylsulfoxide (DMSO)) beginning at ˜2 days after onset of beating for 7 days (media changed with fresh Torin1 or DMSO every 2-3 days), unless otherwise noted. After Torin1 treatment, media was switched back to RPMI/B27/insulin and maintained with media change every 2-3 days until endpoint assay. In a few assays, fatty acids were added in the form of chemically defined lipids (Gibco) diluted 1:1000 simultaneous with Torin1 treatment. In some other assays, fetal bovine serum (10% FBS) was added to cells after completion of Torin treatment for 2-4 days.
Cells were dissociated and 5×10^5 to 1×10^6 cells were used per condition. For cell cycle analysis, 5×10^5 cells per condition were fixed in 70% cold ethanol for at least 2 hours to overnight at −20 degrees C. Cells were stained first with AlexaFluor 647-TNNT2 in Permeabilization Buffer (Thermo) then with Hoechst 33342 (2 μg/ml) and pyronin Y (4 μg/ml) for 20 minutes to distinguish between cells in G0, G1, and S-G2-M phases. For other stains, cells were fixed in eBioscience Intracellular Fixation buffer for 30 minutes followed washing twice in eBioscience Permeabilization Buffer and stained with the appropriate primary antibody (Table 2) in eBioscience FACS Staining buffer for 30-60 minutes. If a secondary antibody was used, cells were incubated with the appropriate secondary antibody (Table 2) for 30-60 minutes. The geometric mean fluorescence intensity (MFI) was quantified for TNNT2 and Kir2.1 antibodies. Data were acquired via a BD LSRII instrument and analyzed using FlowJo software.
(In flow cytometry, cells or beads pass a laser one at a time.)

Test [3] deals with iPSC-derived cardiomyocytes. The experiment in a line: Western analysis of protein expression in iPSC-derived cardiomyocytes. On the procedure: as §1
Cells were lysed with lysis buffer (1% Triton X, 0.35% Na-deoxycholate, 1 mM EDTA, 1% protease inhibitor cocktail (Sigma), 1% phosphatase inhibitor cocktail 2 (Sigma), 1% phosphatase inhibitor cocktail 3 (Sigma), 1 mM phenylmethylsulfonyl fluoride (PMSF)) and total protein was measured with the Pierce BCA Protein Assay Kit. Samples with equal total protein quantities (prepared in Laemmli Sample Buffer (Bio-Rad)) were loaded into a Mini-Protean TGX Precast Gel (Bio-Rad) and electrophoresed for 1 hour at 100 V before transfer to a PVDF membrane using the Trans-Blot Turbo Transfer System (Bio-Rad). The Precision Plus Protein Dual Color Standards molecular weight ladder was used to estimate molecular weight of detected bands (Bio-Rad). Membranes were blocked with 5% milk or bovine serum albumin then incubated with the primary antibody (Table 2) overnight at 4 degrees C. followed by incubation with the horseradish peroxidase-conjugated secondary antibody (Table 2) for 1 hour at room temperature. The Amersham ECL Western Blotting Detection kit was used to detect the protein signal by chemiluminescence, and band densities were quantified using ImageJ software (NIH).

Where [4] appears, read: Torin1 0-200 nM 4 days prior to harvest on day 22, BJRiPS, FIG. 11.

Entries after “also recorded” stand apart in the source; their conditions may differ.

For `CCC(=O)N1CCN(c2ccc(-n3c(=O)ccc4cnc5ccc(-c6cnc7ccccc7c6)cc5c43)cc2C(F)(F)F)CC1` [Torin1], the “% TNNT2+ cardiomyocyte purity in 3D suspension culture” value in test [1] is listed as “trend toward higher purity; also recorded: trend toward higher % TNNT2+ cells”. In addition, in test [2] (10% FBS 48 hours starting two days after completion of Torin1, FIG. 1I), the “percentage of Torin1-treated cells in G0 after 10% FBS” value is reported as “significant decrease”. Also, the “quiescent (G0) cells” value in test [2] (Torin1 200 nM 1 week, vehicle control 24%, FIG. 1G) is 48%. Moreover, the G1 cells in test [2] (Torin1 200 nM 1 week, vehicle control 47%, FIG. 1G) is recorded as 27%. The “percentage of quiescent (G0) TNNT2+ cardiomyocytes versus control” value in test [2] (nutlin-3a 10 μM 24 hours, Torin1 200 nM 7 days, or both, BJRiPS-CMs, FIG. 6B) is recorded as “increased the percentage of quiescent (G0) TNNT2+ cardiomyocytes”. The “percentage of TNNT2+ cardiomyocytes in G1 phase versus control” value in test [2] (nutlin-3a 10 μM 24 hours, Torin1 200 nM 7 days, or both, FIG. 6B) is listed as “decreased the percentage of TNNT2+ cardiomyocytes in G1 phase”. The TNNI1 protein levels entry in test [3] (FIG. 2B, RNA levels not increased) is on record as “increase in TNNI1 protein levels”. For the same molecule, in test [3] (FIG. 5A), the GATA4 protein expression entry is “trend toward increased protein expression”. In test [3] (FIG. 13C, BJRiPS-CM), the “expression of fatty acid receptor CD36” value is on record as “trend toward increased expression”. For the same molecule, the p21 protein expression entry in test [3] (Torin1 0, 10, 50, 200 nM 7 days, FIG. 5A) is given as “dose-dependent decrease”. In addition, the “p53 protein (total and phosphorylated)” value in test [3] (Torin1 0, 10, 50, 200 nM 7 days, Gibco iPS-CM, FIG. 5A) is “dose-dependent increase”. In test [3] (setting [4]), the “TNNI3 protein, late treatment” value is on record as “increases expression of TNNI3” and the “p21 protein, late treatment” value is given as “decreases expression of p21”. In addition, the “TNNTI3 by western analysis” value in test [3] (Torin1 10, 50, 200 nM 4 days, BJRiPS, FIGS. 18F-18G) is listed as “significant increase in TNNTI3”. The “TNNI3 protein (western, densitometry)” value in test [3] (Torin1 10, 50, 200 nM, 4 days, days 25-29, BJRiPS, FIG. 31) is reported as “increased protein expression”. In addition, the “TNNT2 and TNNI3 protein expression by western analysis” value in test [3] (Torin1 7 days, Gibco iPS-CMs, FIG. 2B) was “dose-dependent increase”.
